For series [1], the target named is Der (Bacillus anthracis, UniProt Q81SW9). The settings on record: labelled compound ([5′-α-32P]); 10 mM Tris pH 7.5, 100 mM NaCl, 5 mM MgCl2, room temperature.
In series [2] the target is T1, translation elongation factor G (EF-G) (Bacillus anthracis, UniProt Q81VT3).
T1 construct: gene fusA
Nature of the series: biochemical.

The target of series [3] is T2, Rel (RelA) (Bacillus subtilis, UniProt O54408).
T2 construct: purified
Nature of the series: […] TLC hydrolysis time course. In kind it is biochemical. Particulars: 200 nM enzyme, 100 μM substrate, 25 mM Tris-HCl pH 7.5, 1 mM MnCl2, 37 °C.

Series [4] deals with Obg (Bacillus anthracis, UniProt Q81LF0). The series can be described thus: biochemical.
For series [5], the target named is Gmk (Bacillus anthracis, UniProt Q81WG7). In kind it is binding.
Series [6] deals with Xpt (Bacillus anthracis, UniProt Q81SQ5). Particulars: labelled compound ([5′-α-32P]); 10 mM Tris pH 7.5, 100 mM NaCl, 5 mM MgCl2, room temperature.
The target in series [7] is Hpt1 (Bacillus anthracis, UniProt A0A6L7HDS1). The settings on record: labelled compound ([5′-α-32P]); 10 mM Tris pH 7.5, 100 mM NaCl, 5 mM MgCl2, room temperature.
Substrate in series [8]: Nc1nc2c(ncn2[C@@H]2O[C@H](COP(=O)(O)OP(=O)(O)OP(=O)(O)O)[C@@H](OP(=O)(O)OP(=O)(O)O)[C@H]2O)c(=O)[nH]1
Nature of the series: purified protein. The settings on record: 100 nM enzyme, 40 mM Tris-HCl pH 7.5, 100 mM NaCl, 10 mM MgCl2, 37 °C, cooperative, fitted with Hill equation.

Substrate in series [9]: Nc1nc2c(ncn2[C@@H]2O[C@H](COP(=O)(O)OP(=O)(O)O)[C@@H](OP(=O)(O)OP(=O)(O)O)[C@H]2O)c(=O)[nH]1
The series can be described thus: purified protein. The settings on record: 100 nM enzyme, 40 mM Tris-HCl pH 7.5, 100 mM NaCl, 10 mM MgCl2, 37 °C, Hill n fixed to 1.

Broadly, the Kd is the equilibrium constant for the complex coming apart. The term kcat denotes the number of substrate molecules converted per active site and unit of time at saturation. Usually Km stands for the concentration of substrate that gives half-maximal velocity.

T2 sequence (O54408 whole entry): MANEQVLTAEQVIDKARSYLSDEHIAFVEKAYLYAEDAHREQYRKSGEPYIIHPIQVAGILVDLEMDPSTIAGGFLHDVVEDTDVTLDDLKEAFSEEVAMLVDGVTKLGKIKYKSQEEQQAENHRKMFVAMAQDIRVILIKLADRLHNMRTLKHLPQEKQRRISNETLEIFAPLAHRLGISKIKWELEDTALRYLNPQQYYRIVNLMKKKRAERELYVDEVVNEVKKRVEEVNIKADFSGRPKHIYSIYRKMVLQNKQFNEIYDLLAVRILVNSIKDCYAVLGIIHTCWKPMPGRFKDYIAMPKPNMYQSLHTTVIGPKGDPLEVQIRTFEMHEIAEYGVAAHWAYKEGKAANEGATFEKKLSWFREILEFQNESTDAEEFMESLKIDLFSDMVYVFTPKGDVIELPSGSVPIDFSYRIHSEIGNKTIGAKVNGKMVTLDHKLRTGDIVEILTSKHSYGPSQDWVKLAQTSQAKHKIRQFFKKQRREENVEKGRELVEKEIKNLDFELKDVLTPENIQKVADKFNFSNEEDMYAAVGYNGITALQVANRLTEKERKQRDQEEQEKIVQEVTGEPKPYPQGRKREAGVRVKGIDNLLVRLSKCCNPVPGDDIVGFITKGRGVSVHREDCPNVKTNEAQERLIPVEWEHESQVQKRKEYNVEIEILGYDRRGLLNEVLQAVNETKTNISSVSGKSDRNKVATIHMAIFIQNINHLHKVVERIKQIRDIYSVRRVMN
T1 sequence (Q81VT3 whole entry, looked up): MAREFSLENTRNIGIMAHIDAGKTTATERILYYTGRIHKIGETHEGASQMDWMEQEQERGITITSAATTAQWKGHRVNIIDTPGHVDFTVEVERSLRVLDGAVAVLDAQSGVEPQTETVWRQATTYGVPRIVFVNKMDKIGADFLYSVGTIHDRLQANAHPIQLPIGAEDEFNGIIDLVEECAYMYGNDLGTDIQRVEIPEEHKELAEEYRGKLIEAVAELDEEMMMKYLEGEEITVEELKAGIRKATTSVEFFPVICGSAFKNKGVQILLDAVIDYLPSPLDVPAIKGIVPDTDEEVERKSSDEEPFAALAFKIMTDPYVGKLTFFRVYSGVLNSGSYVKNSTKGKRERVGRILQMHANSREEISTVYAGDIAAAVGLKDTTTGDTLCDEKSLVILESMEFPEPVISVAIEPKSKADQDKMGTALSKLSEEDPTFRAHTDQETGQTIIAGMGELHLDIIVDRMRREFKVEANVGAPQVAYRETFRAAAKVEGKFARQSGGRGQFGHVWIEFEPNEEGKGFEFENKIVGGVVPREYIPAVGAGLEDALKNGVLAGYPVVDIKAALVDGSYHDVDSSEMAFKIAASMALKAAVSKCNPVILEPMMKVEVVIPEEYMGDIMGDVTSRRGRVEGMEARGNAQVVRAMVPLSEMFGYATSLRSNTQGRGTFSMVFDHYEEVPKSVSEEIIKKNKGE
Chain of Obg (Q81LF0 whole entry, looked up): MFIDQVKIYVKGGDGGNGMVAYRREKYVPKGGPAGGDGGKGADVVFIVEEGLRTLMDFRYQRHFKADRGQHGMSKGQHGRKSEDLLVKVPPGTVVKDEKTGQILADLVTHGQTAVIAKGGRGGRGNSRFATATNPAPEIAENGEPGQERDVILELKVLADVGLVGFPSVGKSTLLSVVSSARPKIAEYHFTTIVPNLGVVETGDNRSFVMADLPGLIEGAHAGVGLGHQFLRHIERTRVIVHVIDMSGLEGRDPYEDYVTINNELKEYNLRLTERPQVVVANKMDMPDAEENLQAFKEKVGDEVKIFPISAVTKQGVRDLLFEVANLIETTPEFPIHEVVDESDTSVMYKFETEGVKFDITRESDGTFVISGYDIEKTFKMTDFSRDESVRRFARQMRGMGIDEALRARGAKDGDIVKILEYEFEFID
Chain of Der (Q81SW9 whole entry, looked up): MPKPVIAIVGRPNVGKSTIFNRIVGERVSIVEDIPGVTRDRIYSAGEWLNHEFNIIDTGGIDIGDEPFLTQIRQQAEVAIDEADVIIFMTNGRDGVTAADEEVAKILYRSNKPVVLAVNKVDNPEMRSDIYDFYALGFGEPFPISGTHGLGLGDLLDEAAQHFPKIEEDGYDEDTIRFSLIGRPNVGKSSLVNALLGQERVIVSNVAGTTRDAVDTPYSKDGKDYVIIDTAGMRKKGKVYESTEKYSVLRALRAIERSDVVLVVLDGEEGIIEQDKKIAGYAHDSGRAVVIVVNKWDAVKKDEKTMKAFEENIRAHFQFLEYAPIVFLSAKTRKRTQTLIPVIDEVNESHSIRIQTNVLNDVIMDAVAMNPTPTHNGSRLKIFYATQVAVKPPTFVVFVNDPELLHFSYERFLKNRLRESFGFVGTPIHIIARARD
Chain of Hpt1 (A0A6L7HDS1 1-180): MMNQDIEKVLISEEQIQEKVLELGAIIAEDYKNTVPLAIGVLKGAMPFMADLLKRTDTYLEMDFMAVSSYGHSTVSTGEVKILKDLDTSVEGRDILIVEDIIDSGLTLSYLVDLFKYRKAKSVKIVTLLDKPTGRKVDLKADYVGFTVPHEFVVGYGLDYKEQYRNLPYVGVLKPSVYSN
Chain of Gmk (Q81WG7 whole entry, looked up): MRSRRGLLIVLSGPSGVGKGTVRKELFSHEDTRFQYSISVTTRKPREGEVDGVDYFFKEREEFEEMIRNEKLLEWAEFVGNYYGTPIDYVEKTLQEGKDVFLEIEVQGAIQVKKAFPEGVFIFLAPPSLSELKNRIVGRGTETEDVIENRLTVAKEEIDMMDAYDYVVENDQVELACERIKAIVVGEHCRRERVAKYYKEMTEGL
Chain of Xpt (Q81SQ5 whole entry, looked up): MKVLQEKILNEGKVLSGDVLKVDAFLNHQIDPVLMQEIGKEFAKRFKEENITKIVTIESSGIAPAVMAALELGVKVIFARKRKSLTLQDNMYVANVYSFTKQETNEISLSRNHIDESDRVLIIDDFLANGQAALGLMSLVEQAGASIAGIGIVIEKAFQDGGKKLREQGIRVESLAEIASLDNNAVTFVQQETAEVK

As for `Nc1nc2c(ncn2[C@@H]2O[C@H](COP(=O)(O)OP(=O)(O)O)[C@@H](OP(=O)(O)OP(=O)(O)O)[C@H]2O)c(=O)[nH]1` [ppGpp], the “DRaCALA, 1 μM purified protein” value in [1] is recorded as “GTPases involved in ribosome biogenesis (HflX, Obg, Der) bind ppGpp but not pGpp”. Besides, the Kd worked out at 60 ± 8 µM in series [2] and 6 ± 2 µM in [4]. Further, in [3], the “32P TLC hydrolysis time course” value is “all three nucleotides can be hydrolyzed efficiently by Rel”.

On to `Nc1nc2c(ncn2[C@@H]2O[C@H](COP(=O)(O)O)[C@@H](OP(=O)(O)OP(=O)(O)O)[C@H]2O)c(=O)[nH]1` [pGpp, guanosine-5′-monophosphate-3′-diphosphate], for which the “DRaCALA, 1 μM purified protein” value in [5] was “confirmed strong pGpp binding to guanosine nucleotide synthesis proteins (Hpt1, Gmk, and Xpt)”; in [6], “confirmed strong pGpp binding to guanosine nucleotide synthesis proteins (Hpt1, Gmk, and Xpt)”; in [7] it was “confirmed strong pGpp binding to guanosine nucleotide synthesis proteins (Hpt1, Gmk, and Xpt)”. Also, in series [3], the “32P TLC hydrolysis time course” value is “pGpp was hydrolyzed more rapidly than (p)ppGpp”.

Regarding `Nc1nc2c(ncn2[C@@H]2O[C@H](COP(=O)(O)OP(=O)(O)OP(=O)(O)O)[C@@H](OP(=O)(O)OP(=O)(O)O)[C@H]2O)c(=O)[nH]1` [pppGpp], the results for the Kd in series [2] and in [4] were 296 ± 50 µM and 48 ± 7 µM, respectively.

B1: NahA (YvcI) (Bacillus subtilis subsp. subtilis str. 168) (protein)
chain: MTYLQRVTNCVLQTDDKVLLLQKPRRGWWVAPGGKMESGESVRDSVIREYREETGIYIINPQLKGVFTFIIKDGDHIVSEWMMFTFVADSYTGQNVSESEEGKLQWHDVNDIQNLPMAPGDGHILDFMMKGQGLLHGTFTYTPEFELLSYRLDPQHIK
In the case of B1, in series [8], the K0.5 stood at 177.4 ± 0.4 µM and the kcat amounted to 10 ± 0.5 s⁻¹. Moreover, in [9], the Km worked out at 7.5 ± 2.3 µM and the kcat came out at 1.22 ± 0.17 s⁻¹.
